Patent publication US4861778A, “2,3-dihydrophthalazine-1,4-diones” (priority 1986, dated 1989)
Like-named read-outs stand apart in the source and are kept apart here.

Experiments:
[1] = system: serum cholesterol and serum triglyceride; experiment: Hypolipidemic effect of Compound No. 1 in normal CF1 male mice, dose response (Example 12, Table III); assay type: in vivo
Procedure: The hypolipidemic effects of a preferred compound within the scope of the present invention, 2,3-dihydrophthalazine-1,4-dione (Compound No. 1), was tested in accordance with the procedure set forth in Example 11. However, in addition to testing normal CF1 male mice at 20 mg/kg/d ip, sets of six of these mice were treated with dosages of 10, 40 and 60 mg/kg/d. A set of six mice were again treated with a 1 percent aqueous solution of CMC, the carrier for the active agent, as a control.
(§1) In Table III the results are reported as percent of serum cholesterol and serum triglyceride based on the concentration of these materials found in the control, the rats treated with the 1 percent aqueous solution of CMC.

[2] = system: plasma lipoprotein fractions; experiment: Determination of plasma lipoprotein fractions in rats (Example 13, Table IV); assay type: in vivo, Sprague-Dawley male rats; conditions: 10 mg/kg/d orally
Description: Determination of Plasma Lipoprotein Fractions in Rats
Sets of six normal Sprague-Dawley male rats, each weighing approximately 350 grams, were orally treated with 10 milligrams per kilogram of body weight per day of 2,3-dihydrophthalazine-1,4-dione (Comp. No. 1) by intubation needle. In addition, a set of six Sprague-Dawley male rats of approximately the same weight were similarly treated except that the administered drug was the inert carrier, the 1 percent aqueous solution of CMC.
Blood was collected from all the rats participating in the test from the abdominal vein and lipoprotein fractions were obtained by the method of Hatch and Lees (Adv. Lipid Res., Vol. 6, 1 [1968]) and Havel et al. (J. Clin. Invest., Vol. 34, 1345 [1955]). Each of the fractions were analyzed for cholesterol in accordance with the Ness et al. test, for triglyceride level (Bio-Dynamic/bmc Triglyceride Kit), neutral lipids, in accordance with the test of Bragdon (J. Biol. Chem., Vol. 190, 513 [1951]), phospholipids, in accordance with the Stewart and Hendry procedure (Biochem. J., Vol. 29, 1683 [1935]) and protein levels, in accordance with the procedure of Lowry et al. (J. Biol. Chem., Vol. 193, 265 [1951]).

[3] = system: serum cholesterol and serum triglycerides; experiment: Effect of Compound 1 on hyperlipidemic mice (Example 14); assay type: in vivo, CF1 male mice; conditions: diet-induced hyperlipidemic CF1 mice, 20 mg/kg daily, 12 days
Procedure: Effect of Compound 1 on Hyperlipidemic Mice
A group of CF1 male mice were fed a diet resulting in induced hyperlipidemia.
These hyperlipidemic mice were treated for 12 days with Compound 1 (2,3-dihydrophthalazine-1,4-dione) at a daily dosage of 20 mg/kg. At the conclusion of this treatment regime the average serum cholesterol level of the hyperlipidemic mice was lowered to 221 mg percent, a 41 percent reduction.

[4] = system: serum cholesterol and serum triglyceride; experiment: Hypolipidemic effect of Compound No. 1 in normal Sprague-Dawley male rats (Example 12, Table III); assay type: in vivo; conditions: 10 mg/kg/day orally
Procedure: In addition, rats were treated with Compound No. 1. The rats used in the test were normal Sprague-Dawley male rats, each weighting approximately 350 grams. The rats, tested in groups of six, were orally administered 10 mg/kg/d of Compound 1 in an aqueous solution of 1 percent CMC. The treatment of 10 milligrams per kilogram of body weight per day continued for 14 days. On Days 7 and 14 blood was obtained from each of the rats by tail vein bleeding. The blood obtained was separated centrifugation for three minutes. Serum cholesterol and serum triglyceride blood levels were determined in accordance with the procedure of Example 1.
as §1

[5] = system: serum cholesterol and serum triglyceride; experiment: Hypolipidemic activity of 2,3-dihydrophthalazine-1,4-diones in normal male mice (Example 11, Table II); assay type: in vivo, CF1 male mice; conditions: Mus musculus, ip
Procedure: Hypolipidemic Activity of 2,3-Dihydrophthalazine-1,4-Diones in Normal Male Mice
Each of the prepared compounds was administered intraperitoneally, in a dosage of 20 milligrams per kilogram of body weight per day, to a group of six CF1 male mice, each weighing approximately 25 grams, for 16 days. On Days 9 and 16 blood was obtained from each of the tested mice by tail vein bleeding. The blood serum so obtained was separated by centrifugation for three minutes. […] Serum triglyceride levels were obtained on Day 16 by use of the Bio-Dynamics/bm Triglyceride Kit.
In addition to the above-described treated mice, an untreated control group of six mice were similarly tested on Days 9 and 16 to determine their serum cholesterol and serum triglyceride blood levels.

[6] = 216 h, CF1 male mice, 20 mg/kg/day intraperitoneally, Day 9, read-out: Serum Cholesterol Day 9, percent control ± standard deviation
[7] = 384 h, CF1 male mice, 20 mg/kg/day intraperitoneally, Day 16, read-out: Serum Cholesterol Day 16, percent control ± standard deviation
[8] = 384 h, CF1 male mice, 20 mg/kg/day intraperitoneally, Day 16, read-out: Serum Triglyceride Day 16, percent control ± standard deviation

O=c1[nH][nH]c(=O)c2ccccc12 [Compound 1, 2,3-Dihydrophthalazine-1,4-Dione]
Cholesterol Day 9, % control ± standard deviation ([1]; 10 mg/kg/day ip): 88 ± 5 % CONTROL
Cholesterol Day 16, % control ± standard deviation ([1]; 10 mg/kg/day ip): 76 ± 7 % CONTROL
Triglyceride Day 16, % control ± standard deviation ([1]; 10 mg/kg/day ip): 67 ± 5 % CONTROL
Cholesterol Day 9, % control ± standard deviation ([1]; 20 mg/kg/day ip): 53 ± 4 % CONTROL
Cholesterol Day 16, % control ± standard deviation ([1]; 20 mg/kg/day ip): 49 ± 8 % CONTROL
Triglyceride Day 16, % control ± standard deviation ([1]; 20 mg/kg/day ip): 57 ± 4 % CONTROL
Cholesterol Day 9, % control ± standard deviation ([1]; 40 mg/kg/day ip): 71 ± 7 % CONTROL
Cholesterol Day 16, % control ± standard deviation ([1]; 40 mg/kg/day ip): 60 ± 6 % CONTROL
Triglyceride Day 16, % control ± standard deviation ([1]; 40 mg/kg/day ip): 44 ± 3 % CONTROL
Cholesterol Day 9, % control ± standard deviation ([1]; 60 mg/kg/day ip): 76 ± 8 % CONTROL
Cholesterol Day 16, % control ± standard deviation ([1]; 60 mg/kg/day ip): 55 ± 5 % CONTROL
Triglyceride Day 16, % control ± standard deviation ([1]; 60 mg/kg/day ip): 49 ± 5 % CONTROL
HDL cholesterol, percent control ± standard deviation ([2]; HDL, column 1): 107 ± 3 PERCENT CONTROL
HDL triglyceride, percent control ± standard deviation ([2]; HDL, column 2): 42 ± 4 PERCENT CONTROL
HDL neutral lipids, percent control ± standard deviation ([2]; HDL, column 3): 86 ± 3 PERCENT CONTROL
HDL phospholipids, percent control ± standard deviation ([2]; HDL, column 4): 42 ± 6 PERCENT CONTROL
HDL protein, percent control ± standard deviation ([2]; HDL, column 5): 93 ± 7 PERCENT CONTROL
LDL cholesterol, percent control ± standard deviation ([2]; LDL, column 1): 35 ± 6 PERCENT CONTROL
LDL triglyceride, percent control ± standard deviation ([2]; LDL, column 2): 94 ± 7 PERCENT CONTROL
LDL neutral lipids, percent control ± standard deviation ([2]; LDL, column 3): 88 ± 6 PERCENT CONTROL
LDL phospholipids, percent control ± standard deviation ([2]; LDL, column 4): 125 ± 7 PERCENT CONTROL
LDL protein, percent control ± standard deviation ([2]; LDL, column 5): 92 ± 8 PERCENT CONTROL
VLDL cholesterol, percent control ± standard deviation ([2]; VLDL, column 1): 30 ± 5 PERCENT CONTROL
VLDL triglyceride, percent control ± standard deviation ([2]; VLDL, column 2): 134 ± 10 PERCENT CONTROL
VLDL neutral lipids, percent control ± standard deviation ([2]; VLDL, column 3): 81 ± 3 PERCENT CONTROL
VLDL phospholipids, percent control ± standard deviation ([2]; VLDL, column 4): 91 ± 6 PERCENT CONTROL
VLDL protein, percent control ± standard deviation ([2]; VLDL, column 5): 103 ± 7 PERCENT CONTROL
Chylomicrons cholesterol, percent control ± standard deviation ([2]; chylomicrons, column 1): 82 ± 6 PERCENT CONTROL
Chylomicrons triglyceride, percent control ± standard deviation ([2]; chylomicrons, column 2): 85 ± 7 PERCENT CONTROL
Chylomicrons neutral lipids, percent control ± standard deviation ([2]; chylomicrons, column 3): 84 ± 8 PERCENT CONTROL
Chylomicrons phospholipids, percent control ± standard deviation ([2]; chylomicrons, column 4): 92 ± 7 PERCENT CONTROL
Chylomicrons protein, percent control ± standard deviation ([2]; chylomicrons, column 5): 102 ± 6 PERCENT CONTROL
reduction of serum cholesterol level [3]: 41%
reduction of serum triglycerides level [3]: 56%
average serum triglycerides level after treatment ([3]; initial 367 mg/dl): 161 mg/dL
average serum cholesterol level after treatment ([3]; initial 375 mg percent): 221 mg percent
Cholesterol Day 7, % control ± standard deviation ([4]; Day 7): 75 ± 5 % CONTROL
Triglyceride Day 7, % control ± standard deviation ([4]; Day 7): 66 ± 6 % CONTROL
Cholesterol Day 14, % control ± standard deviation ([4]; Day 14): 68 ± 8 % CONTROL
Triglyceride Day 14, % control ± standard deviation ([4]; Day 14): 64 ± 5 % CONTROL
response vs control in vivo at 20 mg/kg/day [5, 6]: 53 ± 4%
response vs control in vivo at 20 mg/kg/day [5, 7]: 49 ± 5%
response vs control in vivo at 20 mg/kg/day [5, 8]: 57 ± 4%

O=C(O)CCn1[nH]c(=O)c2ccccc2c1=O [Compound 18, 2-(2'-Carboxyethyl)-2,3-Dihydrophthalazine-1,4-Dione]
response vs control in vivo at 20 mg/kg/day [5, 6]: 54 ± 6%
response vs control in vivo at 20 mg/kg/day [5, 7]: 34 ± 3%
response vs control in vivo at 20 mg/kg/day [5, 8]: 60 ± 4%

CCOC(=O)Cn1[nH]c(=O)c2ccccc2c1=O [Compound 19, 2-(1'-Carbethoxymethyl)-2,3-Dihydrophthalazine-1,4-Dione]
response vs control in vivo at 20 mg/kg/day [5, 6]: 78 ± 6%
response vs control in vivo at 20 mg/kg/day [5, 7]: 69 ± 5%
response vs control in vivo at 20 mg/kg/day [5, 8]: 73 ± 4%

CC(=O)CCn1[nH]c(=O)c2ccccc2c1=O [Compound 20, 2-(3'-Oxobutyl)-2,3-Dihydrophthalazine-1,4-Dione]
response vs control in vivo at 20 mg/kg/day [5, 6]: 72 ± 6%
response vs control in vivo at 20 mg/kg/day [5, 7]: 59 ± 3%
response vs control in vivo at 20 mg/kg/day [5, 8]: 70 ± 7%

O=c1[nH]n(-c2ccccc2)c(=O)c2ccccc12 [Compound 21, 2-Phenyl-2,3-Dihydrophthalazine-1,4-Dione]
response vs control in vivo at 20 mg/kg/day ([5]; 216 h, read-out: Serum Cholesterol Day 9, percent control ± standard deviation): 59 ± 5%
response vs control in vivo at 20 mg/kg/day ([5]; 384 h, read-out: Serum Cholesterol Day 16, percent control ± standard deviation): 58 ± 4%
response vs control in vivo at 20 mg/kg/day ([5]; 384 h, read-out: Serum Triglyceride Day 16, percent control ± standard deviation): 65 ± 3%

O=c1c2ccccc2c(O)nn1-c1ccccc1Cl [Compound 22]
response vs control in vivo at 20 mg/kg/day [5, 6]: 72 ± 5%
response vs control in vivo at 20 mg/kg/day [5, 7]: 67 ± 3%
response vs control in vivo at 20 mg/kg/day [5, 8]: 68 ± 4%

O=c1c2ccccc2c(O)nn1-c1cccc(Cl)c1 [Compound 23]
response vs control in vivo at 20 mg/kg/day [5, 6]: 73 ± 4%
response vs control in vivo at 20 mg/kg/day [5, 7]: 62 ± 3%
response vs control in vivo at 20 mg/kg/day [5, 8]: 69 ± 5%

O=c1[nH]n(-c2ccc(Cl)cc2)c(=O)c2ccccc12 [Compound 24, 2-(4'-chlorophenyl)-2,3-dihydrophthalazine-1,4-dione]
response vs control in vivo at 20 mg/kg/day [5, 6]: 60 ± 3%
response vs control in vivo at 20 mg/kg/day [5, 7]: 54 ± 4%
response vs control in vivo at 20 mg/kg/day [5, 8]: 59 ± 5%

Cc1ccccc1-n1nc(O)c2ccccc2c1=O [Compound 25]
response vs control in vivo at 20 mg/kg/day [5, 6]: 82 ± 7%
response vs control in vivo at 20 mg/kg/day [5, 7]: 66 ± 5%
response vs control in vivo at 20 mg/kg/day [5, 8]: 76 ± 6%

Cc1cccc(-n2nc(O)c3ccccc3c2=O)c1 [Compound 26]
response vs control in vivo at 20 mg/kg/day [5, 6]: 87 ± 6%
response vs control in vivo at 20 mg/kg/day [5, 7]: 74 ± 4%
response vs control in vivo at 20 mg/kg/day [5, 8]: 65 ± 3%

Cc1ccc(-n2nc(O)c3ccccc3c2=O)cc1 [Compound 27]
response vs control in vivo at 20 mg/kg/day [5, 6]: 89 ± 5%
response vs control in vivo at 20 mg/kg/day [5, 7]: 73 ± 6%
response vs control in vivo at 20 mg/kg/day [5, 8]: 57 ± 2%
